Measured values from ChEMBL document CHEMBL3745662, “Preliminary investigation of 6,7-dihydropyrazolo[1,5-a]pyrazin-4-one derivatives as a novel series of mGlu5 receptor positive allosteric modulators with efficacy in preclinical models of schizophrenia” (Bioorg Med Chem Lett, 2016).
In brackets after ≈: the same amount, converted by molar mass. Activity calls are given as the source filed them. The calls are words filed in the database; no cut-off is given here.

What was measured:
[1] = biological target: T1, Metabotropic glutamate receptor 5 (Homo sapiens, UniProt P41594); assay: Positive allosteric modulation of human mGlu5 expressed in HEK293 cells assessed as glutamate-induced calcium mobilization; type: functional, cell-based
Target sequence in this assay (P41594 whole entry): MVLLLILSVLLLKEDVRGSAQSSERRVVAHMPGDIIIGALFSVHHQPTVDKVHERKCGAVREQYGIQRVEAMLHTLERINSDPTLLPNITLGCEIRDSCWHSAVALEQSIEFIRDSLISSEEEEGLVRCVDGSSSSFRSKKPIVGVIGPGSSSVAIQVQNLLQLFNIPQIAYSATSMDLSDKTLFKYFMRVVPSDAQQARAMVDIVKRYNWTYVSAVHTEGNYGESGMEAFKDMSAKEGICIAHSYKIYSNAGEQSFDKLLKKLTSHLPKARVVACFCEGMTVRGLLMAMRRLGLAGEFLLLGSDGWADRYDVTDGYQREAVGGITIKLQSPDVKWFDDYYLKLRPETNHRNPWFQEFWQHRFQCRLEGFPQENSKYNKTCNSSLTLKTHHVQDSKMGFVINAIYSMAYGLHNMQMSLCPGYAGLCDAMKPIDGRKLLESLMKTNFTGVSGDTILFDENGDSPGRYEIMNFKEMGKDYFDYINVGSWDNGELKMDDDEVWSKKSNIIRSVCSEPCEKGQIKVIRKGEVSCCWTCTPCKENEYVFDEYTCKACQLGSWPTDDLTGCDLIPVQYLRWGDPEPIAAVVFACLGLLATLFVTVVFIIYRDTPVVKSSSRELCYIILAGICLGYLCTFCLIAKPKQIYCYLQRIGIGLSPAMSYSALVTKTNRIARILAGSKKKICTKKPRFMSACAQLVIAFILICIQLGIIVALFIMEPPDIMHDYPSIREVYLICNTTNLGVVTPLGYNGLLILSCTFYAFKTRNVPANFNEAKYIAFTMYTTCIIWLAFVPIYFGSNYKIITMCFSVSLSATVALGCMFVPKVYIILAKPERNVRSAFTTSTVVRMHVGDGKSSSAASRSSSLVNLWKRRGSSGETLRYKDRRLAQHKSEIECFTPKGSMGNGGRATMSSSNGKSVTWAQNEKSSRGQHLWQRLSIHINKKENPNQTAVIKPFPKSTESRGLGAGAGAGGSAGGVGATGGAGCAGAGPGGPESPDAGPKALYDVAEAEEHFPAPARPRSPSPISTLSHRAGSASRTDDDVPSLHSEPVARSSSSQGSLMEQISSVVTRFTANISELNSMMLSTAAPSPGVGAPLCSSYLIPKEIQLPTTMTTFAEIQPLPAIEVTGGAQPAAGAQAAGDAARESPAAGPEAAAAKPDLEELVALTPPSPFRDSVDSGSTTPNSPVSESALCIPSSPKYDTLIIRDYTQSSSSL

[2] = biological target: T1, Metabotropic glutamate receptor 5; assay: Positive allosteric modulation of human mGlu5 expressed in HEK293 cells assessed as glutamate-induced calcium mobilization relative to glutamate; type: functional, cell-based
Target sequence in this assay (P41594 21-1212 limits assumed): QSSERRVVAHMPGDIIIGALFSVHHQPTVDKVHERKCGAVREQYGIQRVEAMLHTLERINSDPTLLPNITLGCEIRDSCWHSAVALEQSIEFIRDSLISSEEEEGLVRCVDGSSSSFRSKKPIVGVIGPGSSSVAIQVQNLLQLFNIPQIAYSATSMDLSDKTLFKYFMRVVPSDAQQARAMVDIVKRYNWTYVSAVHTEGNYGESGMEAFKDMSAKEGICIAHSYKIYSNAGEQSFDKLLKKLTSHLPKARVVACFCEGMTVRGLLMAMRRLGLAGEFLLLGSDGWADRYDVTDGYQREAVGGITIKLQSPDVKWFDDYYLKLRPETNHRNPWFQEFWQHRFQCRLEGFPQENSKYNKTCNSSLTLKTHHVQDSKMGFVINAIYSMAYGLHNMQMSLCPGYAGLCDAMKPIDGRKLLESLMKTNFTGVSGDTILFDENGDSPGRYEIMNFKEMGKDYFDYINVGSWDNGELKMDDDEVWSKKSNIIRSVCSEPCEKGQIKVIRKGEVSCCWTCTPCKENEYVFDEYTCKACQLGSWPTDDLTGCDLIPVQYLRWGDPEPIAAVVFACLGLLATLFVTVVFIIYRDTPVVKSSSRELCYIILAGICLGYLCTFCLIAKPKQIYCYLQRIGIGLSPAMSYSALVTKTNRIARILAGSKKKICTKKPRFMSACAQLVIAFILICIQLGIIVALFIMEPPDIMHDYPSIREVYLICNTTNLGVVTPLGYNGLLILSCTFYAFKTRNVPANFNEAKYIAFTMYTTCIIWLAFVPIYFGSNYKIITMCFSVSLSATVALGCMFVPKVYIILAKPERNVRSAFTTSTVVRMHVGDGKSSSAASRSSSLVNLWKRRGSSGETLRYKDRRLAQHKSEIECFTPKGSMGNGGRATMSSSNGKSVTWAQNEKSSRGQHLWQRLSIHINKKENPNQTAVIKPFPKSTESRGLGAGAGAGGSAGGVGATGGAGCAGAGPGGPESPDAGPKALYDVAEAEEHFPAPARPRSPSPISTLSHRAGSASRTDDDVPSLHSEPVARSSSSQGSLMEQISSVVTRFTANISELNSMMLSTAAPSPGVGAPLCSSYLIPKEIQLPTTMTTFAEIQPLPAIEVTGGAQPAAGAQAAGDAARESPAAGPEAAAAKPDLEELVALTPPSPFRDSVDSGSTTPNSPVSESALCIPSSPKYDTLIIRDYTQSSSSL

[3] = biological target: Metabotropic glutamate receptor 3 (Homo sapiens, UniProt Q14832); assay: Antagonist activity at human mGlu3 expressed in HEK293 cells assessed as inhibition of glutamate-induced calcium mobilization; type: functional, cell-based
[4] = biological target: Metabotropic glutamate receptor 1 (Homo sapiens, UniProt Q13255); assay: Positive allosteric modulation of human mGlu1 receptor expressed in HEK293 cells assessed as calcium mobilization by fluorescence analysis; type: functional, cell-based
[5] = biological target: Metabotropic glutamate receptor 2 (Homo sapiens, UniProt Q14416); assay: Positive allosteric modulation of human mGlu2 receptor expressed in HEK293 cells assessed as calcium mobilization by fluorescence analysis; type: functional, cell-based
[6] = biological target: Metabotropic glutamate receptor 7 (Homo sapiens, UniProt Q14831); assay: Positive allosteric modulation of human mGlu7 receptor expressed in HEK293 cells assessed as calcium mobilization by fluorescence analysis; type: functional, cell-based
[7] = biological target: Metabotropic glutamate receptor 8 (Homo sapiens, UniProt O00222); assay: Positive allosteric modulation of human mGlu8 receptor expressed in HEK293 cells assessed as calcium mobilization by fluorescence analysis; type: functional, cell-based
[8] = biological target: T2, Metabotropic glutamate receptor 4 (Homo sapiens, UniProt Q14833); assay: Positive allosteric modulation of human mGlu4 receptor expressed in HEK293 cells assessed as calcium mobilization by fluorescence analysis; type: functional, cell-based
[9] = biological target: T2, Metabotropic glutamate receptor 4; assay: Positive allosteric modulation of human mGlu4 receptor expressed in L929sA cells assessed as calcium mobilization by fluorescence analysis; type: functional, cell-based
[10] = biological target: T2, Metabotropic glutamate receptor 4; assay: Positive allosteric modulation of human mGlu4 receptor expressed in HEK293 cells by [35S]-GTPgammaS binding assay; type: functional, cell-based
[11] = biological target: T2, Metabotropic glutamate receptor 4; assay: Positive allosteric modulation of human mGlu4 receptor expressed in L929sA cells by [35S]-GTPgammaS binding assay; type: functional, cell-based
[12] = biological target: Metabotropic glutamate receptor 6 (Rattus norvegicus, UniProt P35349); assay: Positive allosteric modulation of rat mGlu6 receptor expressed in CHO cells by [35S]-GTPgammaS binding assay; type: functional, cell-based
[13] = Percentage unbound in rat brain; type: ADME, tissue-based; settings: brain tissue
Cytochrome P450 1A2 = biological target: T3, Cytochrome P450 1A2 (Homo sapiens, UniProt P05177); assay: Inhibition of CYP1A2 (unknown origin); type: ADME
T3 sequence (P05177 whole entry): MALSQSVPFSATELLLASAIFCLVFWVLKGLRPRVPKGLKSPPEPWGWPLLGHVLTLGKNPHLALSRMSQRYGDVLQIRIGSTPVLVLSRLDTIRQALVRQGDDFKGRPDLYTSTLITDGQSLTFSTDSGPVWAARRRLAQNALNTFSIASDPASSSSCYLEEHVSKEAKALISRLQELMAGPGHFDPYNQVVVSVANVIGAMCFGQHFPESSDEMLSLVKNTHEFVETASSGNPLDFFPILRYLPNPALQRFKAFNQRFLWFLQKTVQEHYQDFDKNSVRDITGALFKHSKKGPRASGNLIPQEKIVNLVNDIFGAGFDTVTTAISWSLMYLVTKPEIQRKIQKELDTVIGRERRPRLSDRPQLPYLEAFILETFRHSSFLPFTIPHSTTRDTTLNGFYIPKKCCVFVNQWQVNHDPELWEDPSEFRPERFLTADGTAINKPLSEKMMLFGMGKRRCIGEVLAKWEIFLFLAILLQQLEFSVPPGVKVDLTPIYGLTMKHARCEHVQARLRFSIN

Cytochrome P450 2C9 = Cytochrome P450 2C9 (Homo sapiens, UniProt P11712); assay: Inhibition of CYP2C9 (unknown origin); type: ADME
Cytochrome P450 2D6 = Cytochrome P450 2D6 (Homo sapiens, UniProt P10635); assay: Inhibition of CYP2D6 (unknown origin); type: ADME
Cytochrome P450 3A4 = Cytochrome P450 3A4 (Homo sapiens, UniProt P08684); assay: Inhibition of CYP3A4 (unknown origin); type: ADME
[14] = Plasma protein binding in human assessed as percentage unbound; type: ADME, cell-free
[15] = Plasma protein binding in rat assessed as percentage unbound; type: ADME, cell-free
[16] = Solubility of compound in fed state simulated intestinal fluid; type: ADME; settings: simulated gi fluid
[17] = biological target: Voltage-gated inwardly rectifying potassium channel KCNH2 (Homo sapiens, UniProt Q12809); assay: Inhibition of human ERG
[18] = Inhibition of Calcium channel (unknown origin); design: species or system Homo sapiens
[19] = Inhibition of Sodium channel (unknown origin); design: species or system Homo sapiens
[20] = Plasma clearance in rat at 2.5 mg/kg, iv; type: ADME, organism-based
[21] = Volume of distribution at steady state in rat at 2.5 mg/kg, iv; type: ADME, organism-based; settings: in vivo, read-out: Vdss
[22] = Half life in rat at 2.5 mg/kg, iv; type: ADME, organism-based; settings: in vivo
[23] = Cmax in rat at 10 mg/kg, po; type: ADME, organism-based; design: dose 10 mg/kg, route oral; settings: in vivo
[24] = AUC (0 to infinity) in rat at 10 mg/kg, po; type: ADME, organism-based; design: dose 10 mg/kg, route oral, time infinity; settings: in vivo
[25] = Oral bioavailability in rat at 10 mg/kg; type: ADME, organism-based; settings: in vivo
[26] = Plasma clearance in dog at 0.5 mg/kg, iv; type: ADME, organism-based, Canis lupus familiaris
[27] = Volume of distribution at steady state in dog at 0.5 mg/kg, iv; type: ADME, organism-based, Canis lupus familiaris; settings: in vivo, read-out: Vdss
[28] = Half life in dog at 0.5 mg/kg, iv; type: ADME, organism-based, Canis lupus familiaris; settings: in vivo
[29] = Cmax in dog at 5 mg/kg, po; type: ADME, organism-based, Canis lupus familiaris; design: dose 5 mg/kg, route oral; settings: in vivo
[30] = AUC (0 to infinity) in dog at 5 mg/kg, po; type: ADME, organism-based, Canis lupus familiaris; design: dose 5 mg/kg, time infinity, route oral; settings: in vivo
[31] = Oral bioavailability in dog at 5 mg/kg; type: ADME, organism-based, Canis lupus familiaris; settings: in vivo
Rattus norvegicus [32] = assay: Antipsychotic-like activity in po dosed Sprague-Dawley rat assessed as reversal of amphetamine-induced hyperlocomotion; type: functional
Rattus norvegicus [33] = assay: Antipsychotic-like activity in dosed Sprague-Dawley rat assessed as full reversal of amphetamine-induced hyperlocomotion at 100 mg/kg, po; type: functional, organism-based
Rattus norvegicus [34] = assay: Procognitive activity in po dosed Sprague-Dawley rat assessed as enhancement of contexual fear conditioning acquistion treated for 30 mins prior to conditioning measured after 24 hrs; type: functional
Rattus norvegicus [35] = assay: Toxicity in Sprague-Dawley rat assessed as complusive behavior at 25 to 600 mg/kg, po; type: organism-based; settings: in vivo
Rattus norvegicus [36] = assay: Toxicity in Sprague-Dawley rat assessed as pedaling movements of forepaws at 25 to 600 mg/kg, po; type: organism-based; settings: in vivo
Rattus norvegicus [37] = assay: Toxicity in Sprague-Dawley rat assessed as tremors at 25 to 600 mg/kg, po; type: organism-based; settings: in vivo
Rattus norvegicus [38] = assay: Toxicity in Sprague-Dawley rat assessed as mortality at 600 mg/kg, po; type: organism-based; settings: in vivo
[39] = biological target: Platelet-activating factor receptor (Homo sapiens) (UniProt P25105); assay: Inhibition of human PAF at 10 uM
in vivo [40] = settings: rat, po, 10 mg/kg
Description: Tmax in rat at 10 mg/kg, po

in vivo [41] = settings: dog, po, 5 mg/kg

T2 sequence (Q14833 whole entry): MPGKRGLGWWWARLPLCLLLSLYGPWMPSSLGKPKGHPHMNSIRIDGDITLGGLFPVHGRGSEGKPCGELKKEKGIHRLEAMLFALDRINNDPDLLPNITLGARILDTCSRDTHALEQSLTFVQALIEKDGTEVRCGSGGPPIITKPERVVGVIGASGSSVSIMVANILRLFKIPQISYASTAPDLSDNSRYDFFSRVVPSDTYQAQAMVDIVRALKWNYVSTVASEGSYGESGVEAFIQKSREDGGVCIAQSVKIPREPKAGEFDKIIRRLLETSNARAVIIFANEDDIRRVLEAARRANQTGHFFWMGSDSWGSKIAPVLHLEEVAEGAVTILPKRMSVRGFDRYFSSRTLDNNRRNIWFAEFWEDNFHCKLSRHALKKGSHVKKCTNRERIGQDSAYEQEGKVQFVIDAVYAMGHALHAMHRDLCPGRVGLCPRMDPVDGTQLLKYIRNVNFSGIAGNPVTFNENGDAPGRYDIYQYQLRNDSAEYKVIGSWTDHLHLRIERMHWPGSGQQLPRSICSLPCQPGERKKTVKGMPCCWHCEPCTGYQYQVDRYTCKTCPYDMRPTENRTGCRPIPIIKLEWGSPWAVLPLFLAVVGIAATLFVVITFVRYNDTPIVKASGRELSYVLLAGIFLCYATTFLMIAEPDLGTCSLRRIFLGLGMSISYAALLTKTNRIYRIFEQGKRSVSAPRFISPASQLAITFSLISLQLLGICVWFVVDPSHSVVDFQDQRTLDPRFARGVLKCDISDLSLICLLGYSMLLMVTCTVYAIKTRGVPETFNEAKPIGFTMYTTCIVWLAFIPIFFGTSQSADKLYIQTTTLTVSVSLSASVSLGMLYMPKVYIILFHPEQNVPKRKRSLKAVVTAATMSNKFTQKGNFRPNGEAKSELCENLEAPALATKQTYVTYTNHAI
Chain of Metabotropic glutamate receptor 3 (Q14832 whole entry): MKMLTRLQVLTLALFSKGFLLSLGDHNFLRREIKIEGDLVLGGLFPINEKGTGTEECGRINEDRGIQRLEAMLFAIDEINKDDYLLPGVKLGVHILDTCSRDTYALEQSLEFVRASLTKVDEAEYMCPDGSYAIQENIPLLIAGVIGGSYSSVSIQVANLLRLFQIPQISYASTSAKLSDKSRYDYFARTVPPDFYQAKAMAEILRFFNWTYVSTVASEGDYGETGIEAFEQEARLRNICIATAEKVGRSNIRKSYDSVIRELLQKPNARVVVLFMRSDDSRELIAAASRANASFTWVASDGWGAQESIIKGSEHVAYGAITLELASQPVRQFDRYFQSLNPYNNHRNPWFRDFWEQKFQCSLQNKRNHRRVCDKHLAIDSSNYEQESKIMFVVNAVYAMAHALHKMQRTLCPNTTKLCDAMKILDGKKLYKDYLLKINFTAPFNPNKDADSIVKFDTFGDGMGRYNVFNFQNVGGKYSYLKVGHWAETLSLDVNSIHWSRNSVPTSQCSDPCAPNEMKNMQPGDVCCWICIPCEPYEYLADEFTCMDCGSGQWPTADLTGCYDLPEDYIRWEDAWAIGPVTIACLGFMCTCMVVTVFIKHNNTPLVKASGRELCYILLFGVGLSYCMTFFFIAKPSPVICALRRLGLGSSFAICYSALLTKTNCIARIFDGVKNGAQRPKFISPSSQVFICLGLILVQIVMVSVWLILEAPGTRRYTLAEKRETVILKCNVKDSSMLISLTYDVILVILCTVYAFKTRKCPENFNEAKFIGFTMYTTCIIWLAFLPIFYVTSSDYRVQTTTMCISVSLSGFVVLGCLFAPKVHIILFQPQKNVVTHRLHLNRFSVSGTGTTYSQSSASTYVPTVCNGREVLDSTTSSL
Chain of Cytochrome P450 2C9 (P11712 whole entry): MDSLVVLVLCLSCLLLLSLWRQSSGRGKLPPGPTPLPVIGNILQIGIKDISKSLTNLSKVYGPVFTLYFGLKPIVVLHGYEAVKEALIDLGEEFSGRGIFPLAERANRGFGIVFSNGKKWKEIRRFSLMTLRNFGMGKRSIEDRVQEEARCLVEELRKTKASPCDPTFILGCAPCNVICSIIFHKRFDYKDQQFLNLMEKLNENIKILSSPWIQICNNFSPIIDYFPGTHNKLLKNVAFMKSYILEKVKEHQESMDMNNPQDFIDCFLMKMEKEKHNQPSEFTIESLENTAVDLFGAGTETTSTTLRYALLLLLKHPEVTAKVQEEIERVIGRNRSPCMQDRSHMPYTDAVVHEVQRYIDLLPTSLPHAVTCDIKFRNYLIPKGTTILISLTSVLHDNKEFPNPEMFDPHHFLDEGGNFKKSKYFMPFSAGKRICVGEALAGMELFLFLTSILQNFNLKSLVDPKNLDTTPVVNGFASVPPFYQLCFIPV
Chain of Platelet-activating factor receptor (Homo sapiens) (P25105 whole entry): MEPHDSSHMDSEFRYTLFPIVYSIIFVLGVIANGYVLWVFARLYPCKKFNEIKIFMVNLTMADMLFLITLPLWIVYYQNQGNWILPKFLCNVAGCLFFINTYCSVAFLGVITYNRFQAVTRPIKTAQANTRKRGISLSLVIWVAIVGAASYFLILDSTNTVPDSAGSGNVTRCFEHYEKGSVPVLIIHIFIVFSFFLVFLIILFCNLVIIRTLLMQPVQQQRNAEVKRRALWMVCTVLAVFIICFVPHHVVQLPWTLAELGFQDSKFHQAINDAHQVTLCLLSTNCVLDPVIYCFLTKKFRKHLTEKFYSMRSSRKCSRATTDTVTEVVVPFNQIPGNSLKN

O=C1c2cc(COc3ccccc3)nn2CCN1c1ccc(F)c(F)c1
EC50 ([1]; read-out: EC50): 87 nM
Emax [2]: 81%

COc1ccc(N2CCn3nc(COc4ccccc4)cc3C2=O)nc1
EC50 ([1]; read-out: EC50): 620 nM
Emax [2]: 74%

O=C1c2cc(COc3ccccc3)nn2CCN1c1ccc(F)cn1
EC50 ([1]; read-out: EC50): 130 nM
Emax [2]: 72%
EC50 [3]: 6760 nM
EC50 [4]: > 10 µM
EC50 [5]: > 10 µM
EC50 [6]: > 10 µM
EC50 [7]: > 10 µM
EC50 [8]: > 10 µM
EC50 [9]: > 10 µM
EC50 [10]: > 10 µM
EC50 [11]: > 10 µM
EC50 [12]: > 10 µM
fraction unbound [13]: 0.055
IC50 (Cytochrome P450 1A2): ≥ 30 µM
IC50 (Cytochrome P450 2C9): ≥ 30 µM
IC50 (Cytochrome P450 2D6): ≥ 30 µM
IC50 (Cytochrome P450 3A4): ≥ 30 µM
Fu [14]: 8.2%
Fu [15]: 6.8%
solubility [16]: 13 µg/mL (≈ 38.4 µM)
IC50 [17]: > 10 µM
IC50 [18]: > 10 µM
IC50 [19]: > 10 µM
clearance [20]: 19 mL/min/kg
Vd [21]: 1.6 L/kg
half-life [22]: 96 min
Cmax [23]: 730 ng/mL
AUC(0-inf) [24]: 6670 ng·h/mL
bioavailability [25]: 88%
clearance [26]: 25 mL/min/kg
Vd [27]: 2.6 L/kg
half-life [28]: 144 min
Cmax [29]: 519 ng/mL
AUC(0-inf) [30]: 1540 ng·h/mL
bioavailability [31]: 48%
Activity (Rattus norvegicus [32]): Dose-dependent effect
Activity (Rattus norvegicus [33]): Active
Activity (Rattus norvegicus [34]): Dose-dependent effect
minimal effective dose (Rattus norvegicus [34]; read-out: MED): 0.3 mg/kg
Activity (Rattus norvegicus [35]): Toxic
Activity (Rattus norvegicus [36]): Toxic
Activity (Rattus norvegicus [37]): Toxic
Activity (Rattus norvegicus [38]): Toxic
inhibition [39]: 57%
Tmax (in vivo [40]): 4 h
Tmax (in vivo [41]): 42 min

O=C1c2cc(COc3ccccc3)nn2CCN1c1ccncc1
EC50 ([1]; read-out: EC50): 2090 nM
Emax [2]: 72%

Cc1ccc(OCc2cc3n(n2)CCN(c2ccc(F)cc2)C3=O)cc1
EC50 ([1]; read-out: EC50): 300 nM
Emax [2]: 58%

O=C1c2cc(COc3cccc(F)c3)nn2CCN1c1ccc(F)cc1
EC50 ([1]; read-out: EC50): 100 nM
Emax [2]: 70%

O=C1c2cc(COc3cccnc3)nn2CCN1c1ccc(F)cc1
EC50 ([1]; read-out: EC50): 3980 nM
Emax [2]: 69%

O=C1c2c(Cl)c(COc3ccccc3)nn2CCN1c1ccc(F)cc1
EC50 ([1]; read-out: EC50): > 30000 nM

O=C1c2cc(COc3ccccc3F)nn2CCN1c1ccc(F)cc1
EC50 ([1]; read-out: EC50): 150 nM
Emax [2]: 66%

O=C1c2cc(COc3ccccc3)nn2CCN1c1cccnc1
EC50 ([1]; read-out: EC50): 2090 nM
Emax [2]: 64%

O=C1c2cc(COc3ccccn3)nn2CCN1c1ccc(F)cc1
EC50 ([1]; read-out: EC50): 490 nM
Emax [2]: 68%
EC50 [3]: 290 nM

Cc1ccc(N2CCn3nc(COc4ccccc4)cc3C2=O)nc1
EC50 ([1]; read-out: EC50): 190 nM
Emax [2]: 76%

O=C1c2cc(COc3ccccc3)nn2CCCN1c1ccc(F)cc1
EC50 ([1]; read-out: EC50): 220 nM
EC50 ([1]; read-out: pEC50 (converted)): 87.1 nM
Emax [2]: 79%
EC50 [3]: 540 nM

O=C1c2cc(COc3ccccc3)nn2CCN1c1ccccn1
EC50 ([1]; read-out: EC50): 760 nM
Emax [2]: 69%

O=C1c2cc(COc3ccc(F)cc3)nn2CCN1c1ccc(F)cc1
EC50 ([1]; read-out: EC50): 100 nM
Emax [2]: 72%
EC50 [3]: 34 nM
